Article PMC9804084, “Multiple drug transporters contribute to the brain transfer of levofloxacin” (CNS Neuroscience & Therapeutics, 2022)
Like-named read-outs stand apart in the source and are kept apart here.

Columns and labels:
P-glycoprotein (P-gp) = experiment: In vivo microdialysis pharmacokinetics of LVFX with P-gp inhibitor Tariquidar; set-up: species or system rat; settings: for MRT / Tmax / AUC(0-inf) / Cmax / half-life / AUC(0-t) / Kp: rat, intravenous, with Tariquidar 8 mg/kg i.p., TAR group, Tariquidar 8 mg/kg i.p. + LVFX 50 mg/kg, N=5; for MRT / AUC(0-inf) / Cmax / half-life / AUC(0-t): mean ± SD; for AUC(0-t): read-out: AUC0–180 (converted)
Procedure: (§1) On the day of surgery, rats were anesthetized using inhaled isoflurane via a facemask. The rats were placed in a stereotaxic frame (Gene&I), and the body temperature was maintained with a homoeothermic blanket set at 37°C. A midline incision was made to expose the skull. According to the Paxinos and Watson atlas, two microdialysis intracerebral guide cannulae (Eicom Co.) were implanted into the hippocampus CA1 region (Hp‐CA1 coordinates: AP −4.16 mm; ML −2.2 mm; DV −2.9 mm) and lateral ventricle (LV coordinates: AP −1.4 mm; ML +2.2 mm; DV −3.4 mm). Fixed to the skull using a screw and dental cement. After 3 days of recovery, the rats were anesthetized with isoflurane again. An intravascular probe (TP‐100‐20; 20 mm, Eicom Co.) was implanted into the jugular vein toward the right atrium. After the blood microdialysis probe was positioned within the jugular vein, the pipeline was connected to perfuse with ACD solution (citric acid 3.5 mM; sodium citrate 7.5 mM; dextrose 13.6 mM) at a flow rate of […], and the Hamilton microinjection pump was used for continuous perfusion. After stopping isoflurane inhalation, the rats were allowed to wake up naturally on the homoeothermic blanket. The awake rats were placed in a device that allowed them to move freely. Animals were allowed to recover for an additional 24 h.
(§2) All microdialysate concentrations (C m) from the hippocampal ECF and lateral ventricle CSF were converted to the unbound drug concentration (C u) at the target site using the following formula: C u = C m/R dial.
(§3) A total of 32 rats were randomly divided into the following groups: • Control group, N = 12: vehicle solution + LVFX (50 mg/kg). • TAR group, N = 5: Tariquidar (8 mg/kg) + LVFX (50 mg/kg). • Ko143 group, N = 5: Ko143 (15 mg/kg) + LVFX (50 mg/kg). • MK571 group, N = 5: MK571 (20 mg/kg) + LVFX (50 mg/kg). • PRO group, N = 5: Probenecid (50 mg/kg) + LVFX (50 mg/kg).
(§4) Levofloxacin was freshly dissolved in isotonic saline and administered via tail vein injection. Thirty minutes before LVFX administration, the intervention drugs of each group were injected intraperitoneally. To reduce the possible effect of solvents on BBB or BCSFB permeability of LVFX, we prioritized water as the solvent. However, Tariquidar and Ko143 are insoluble in water, and a cosolvent must be used to prepare agents that animals can tolerate. According to the different physicochemical properties of these four inhibitors, the preparation of each transporter inhibitor solution in this experiment was as follows. • P‐glycoprotein (P‐gp) inhibitor Tariquidar[22]: Tariquidar was freshly dissolved in DMSO to 8 mg/ml and then diluted to 4 mg/ml with a solution containing 10% Tween‐80, 25% PEG300, and 65% sterile water. • Breast cancer resistance protein (BCRP) inhibitor Ko143[23]: Ko143 was freshly dissolved in DMSO to 15 mg/ml and then diluted to 7.5 mg/ml with a solution containing 10% Tween‐80, 25% PEG300, and 65% sterile water. • Multidrug resistance‐associated proteins (MRPs) inhibitor MK571[24]: MK571 sodium salt hydrate was dissolved in 1.25% (w/v) aq sodium hydrogen carbonate (NaHCO3) solution to obtain a concentration of 10 mg/ml. • Organic anion transporters (OATs) inhibitor probenecid[25]: Probenecid was dissolved in NaOH (pH = 9.0–9.2) alkalized physiological saline to obtain a concentration of 25 mg/ml.
(§5) The pipelines where the blood and brain probes were installed were perfused at the speed of 2 μl/min with ACD solution and ACSF, respectively. Two brain probes were inserted into guide cannulas of the target site and allowed to equilibrate for 1 h. Subsequently, the rats were treated according to their corresponding groups in the device where they could move freely. Microdialyses samples were collected every 15 min using a fraction collector (EFC‐96, Eicom Co.) for 3 h and stored at 4°C until analysis. Finally, rats were anesthetized and decapitated, and their brain was harvested.

[1] = test system: Organic anion transporters (OATs); experiment: In vivo microdialysis pharmacokinetics of LVFX with OATs inhibitor probenecid; set-up: species or system rat; settings: for MRT / half-life / Tmax / AUC(0-inf) / Cmax / AUC(0-t) / Kp: rat, intravenous, with Probenecid 50 mg/kg i.p., PRO group, Probenecid 50 mg/kg i.p. + LVFX 50 mg/kg, N=5; for MRT / half-life / AUC(0-inf) / Cmax / AUC(0-t): mean ± SD; for AUC(0-t): read-out: AUC0–180 (converted)
Procedure: as §1, §2, §3, §4, §5

[2] = CSF (lateral ventricle microdialysate, unbound), 30 min before LVFX, CSF
[3] = CSF (lateral ventricle microdialysate, unbound), CSF
[4] = CSF / blood (unbound, microdialysate), 30 min before LVFX, AUCu,CSF/AUCu,blood, read-out: K p,uu,CSF
[5] = brain ECF (hippocampal microdialysate, unbound), 30 min before LVFX, brain ECF
[6] = brain ECF / blood, 30 min before LVFX, AUCu,ECF/AUCu,blood, read-out: K p,uu,ECF
[7] = blood, PRO group (probenecid 50 mg/kg) vs control group

change in LVFX in the rat brain after Tariquidar (P-glycoprotein (P-gp); Tariquidar 8 mg/kg i.p. + LVFX 50 mg/kg vs control group): no significant change
MRT (P-glycoprotein (P-gp); [2]): 1.33 h
Tmax (P-glycoprotein (P-gp); [3]): 15 min
AUC(0-inf) (P-glycoprotein (P-gp); [3]): 4540 ng·h/mL
Cmax (P-glycoprotein (P-gp); [3]): 3590 ± 280 ng/mL
half-life (P-glycoprotein (P-gp); [3]): 50.5 ± 18.6 min
AUC(0-t) (P-glycoprotein (P-gp); [3]): 3900 ng·h/mL
Kp (P-glycoprotein (P-gp); [4]): 0.37 ± 0.013
Tmax (P-glycoprotein (P-gp); [5]): 15 min
AUC(0-inf) (P-glycoprotein (P-gp); [5]): 4580 ng·h/mL
Cmax (P-glycoprotein (P-gp); [5]): 2810 ± 450 ng/mL
MRT (P-glycoprotein (P-gp); [5]): 1.43 h
half-life (P-glycoprotein (P-gp); [5]): 52.9 ± 9.83 min
AUC(0-t) (P-glycoprotein (P-gp); [5]): 4100 ng·h/mL
Kp (P-glycoprotein (P-gp); [6]): 0.368 ± 0.035
Tmax (P-glycoprotein (P-gp); 30 min before LVFX, blood): 15 min
AUC(0-inf) (P-glycoprotein (P-gp); 30 min before LVFX, blood): 11800 ng·h/mL
Cmax (P-glycoprotein (P-gp); 30 min before LVFX, blood): 10400 ± 760 ng/mL
MRT (P-glycoprotein (P-gp); 30 min before LVFX, blood): 1.15 h
half-life (P-glycoprotein (P-gp); 30 min before LVFX, blood): 40 ± 6.51 min
AUC(0-t) (P-glycoprotein (P-gp); 30 min before LVFX, blood): 11100 ng·h/mL
AUC0–180 higher than control group [1, 7]: 128.6%
AUC0–∞ higher than control group [1, 7]: 143.0%
C max greater than control group [1, 7]: 71.2%
MRT longer than control group [1, 7]: 1.29 times
t 1/2 longer than control group [1, 7]: 1.28 times
MRT [1, 2]: 1.47 h
half-life [1, 2]: 57.5 ± 7.55 min
Tmax [1, 3]: 15 min
AUC(0-inf) [1, 3]: 9510 ng·h/mL
Cmax [1, 3]: 6800 ± 240 ng/mL
AUC(0-t) [1, 3]: 8330 ng·h/mL
Kp [1, 4]: 0.359 ± 0.008
Tmax [1, 5]: 15 min
AUC(0-inf) [1, 5]: 9220 ng·h/mL
Cmax [1, 5]: 5850 ± 180 ng/mL
half-life [1, 5]: 67 ± 16.8 min
AUC(0-t) [1, 5]: 7830 ng·h/mL
Kp [1, 6]: 0.337 ± 0.012
Tmax ([1]; 30 min before LVFX, blood): 15 min
AUC(0-inf) ([1]; 30 min before LVFX, blood): 27000 ng·h/mL
Cmax ([1]; 30 min before LVFX, blood): 17500 ± 600 ng/mL
MRT ([1]; 30 min before LVFX, blood): 1.58 h
half-life ([1]; 30 min before LVFX, blood): 63.1 ± 9.61 min
AUC(0-t) ([1]; 30 min before LVFX, blood): 23200 ng·h/mL
MRT ([1]; 30 min before LVFX, brain ECF): 1.61 h
SMILES: C[C@H]1COc2c(N3CCN(C)CC3)c(F)cc3c(=O)c(C(=O)O)cn1c23 [LVFX, Levofloxacin]
